# Results published in patent US11548911B2, “Cleavable linker for peptide synthesis” (ROCHE SEQUENCING SOLUTIONS, INC., priority 2018, dated 2023).
# Non-standard residues stand in square brackets, D forms with d. Residues, ends and D or L forms follow the SMILES beside them. Aha = [N-]=[N+]=NCC[C@H](N)C(=O)O
# Assay: Water solubility of hydrophobic peptide and its linker cleavage fragments
# Type: physicochemical
# Procedure: In order to enhance solubility of this peptide a variant was prepared in which a cleavable N-terminal poly-lysine tag was synthesized after the peptide sequence and incorporated cleavable linker 1: H-KKKKK—(linker 1) AhaGISFSIRFAIWIRFG-NH2 (10) (SEQ. ID. No: 3). Synthesis and purification of this modified peptide proceeded smoothly according to example 3 (FIG. 2B). Pure peptide 10 was dissolved in a 0.05 M aqueous NaHCO3 solution and shaken for 2 h at r.t. (FIG. 2A). The cleavage reaction released the two peptides 11 and 12: While the poly-lysine tag 11 is water soluble, peptide 12 precipitated under the reaction conditions and could be easily isolated in high purity by centrifugation. • FIG. 2B: LC-MS of H-KKKKK (linker 1)-AhaGISFSIRFAIWIRFG-NH2 (10), MS (ESI): 545.4 [M+5H]^5+, 681.6 [M+4H]^4+, 908.3 [M+3H]^3+, 1362.0 [M+2H]^2+. • FIG. 2C: MS (ESI) of insoluble peptide 12 (MS (ESI): 661.5 [M+3H]^3+, 991.3 [M+2H]^2+, 1322.0 […], 1983.1 [M+H]^+).
smiles,measurement,value
CC[C@H](C)[C@H](NC(=O)CNC(=O)[C@@H](N)CCN=[N+]=[N-])C(=O)N[C@@H](CO)C(=O)N[C@@H](Cc1ccccc1)C(=O)N[C@@H](CO)C(=O)N[C@H](C(=O)N[C@@H](CCCNC(=N)N)C(=O)N[C@@H](Cc1ccccc1)C(=O)N[C@@H](C)C(=O)N[C@H](C(=O)N[C@@H](Cc1c[nH]c2ccccc12)C(=O)N[C@H](C(=O)N[C@@H](CCCNC(=N)N)C(=O)N[C@@H](Cc1ccccc1)C(=O)NCC(N)=O)[C@@H](C)CC)[C@@H](C)CC)[C@@H](C)CC [H-AhaGISFSIRFAIWIRFG-NH2] (H-[Aha]GISFSIRFAIWIRFG-NH2),solubility in water,insoluble in water
